Test results reported in patent US9067943B2, “[1,2,3]triazolo[4,5-D]pyrimidine derivatives” (priority 2011, dated 2015).
Read-outs that look alike come from different tables or passages of the source.

Tests used:
[1] = biological target: T1, human CB2 receptors (Homo sapiens, UniProt P34972); assay: cAMP assay; type: cell-based
T1 construct: expressed in transfected cells; host or cells: CHO cells
Procedure, shortened: (§1)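 CHO cells expressing human CB1 or CB2 were preincubated 30 min at 30 °C in Krebs Ringer bicarbonate buffer with 1 mM IBMX, then exposed to compounds for 30 min at 30 °C. cAMP was measured by time-resolved FRET against a cAMP standard curve, and EC50 values were derived.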

[2] = biological target: T2, human CB1 receptors (Homo sapiens, UniProt P21554); assay: cAMP assay; type: cell-based
T2 construct: expressed in transfected cells; host or cells: CHO cells
Procedure, shortened: as §1

[3] = functional cAMP assay, CHO cells expressing human CB2, read-out: human CB2 EC50

T2 sequence (P21554 whole entry): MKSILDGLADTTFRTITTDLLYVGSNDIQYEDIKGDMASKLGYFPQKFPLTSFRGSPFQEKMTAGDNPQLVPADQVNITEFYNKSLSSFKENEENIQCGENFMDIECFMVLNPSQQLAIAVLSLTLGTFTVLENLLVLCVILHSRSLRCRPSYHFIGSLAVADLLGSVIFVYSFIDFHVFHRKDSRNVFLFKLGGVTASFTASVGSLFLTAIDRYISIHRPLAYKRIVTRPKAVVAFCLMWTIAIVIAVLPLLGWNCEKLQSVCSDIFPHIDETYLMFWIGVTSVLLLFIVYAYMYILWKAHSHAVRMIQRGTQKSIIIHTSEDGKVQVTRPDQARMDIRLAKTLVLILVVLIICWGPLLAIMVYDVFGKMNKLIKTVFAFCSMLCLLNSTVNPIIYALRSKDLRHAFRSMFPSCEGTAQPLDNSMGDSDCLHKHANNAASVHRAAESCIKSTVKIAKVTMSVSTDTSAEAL
T1 sequence (P34972 whole entry): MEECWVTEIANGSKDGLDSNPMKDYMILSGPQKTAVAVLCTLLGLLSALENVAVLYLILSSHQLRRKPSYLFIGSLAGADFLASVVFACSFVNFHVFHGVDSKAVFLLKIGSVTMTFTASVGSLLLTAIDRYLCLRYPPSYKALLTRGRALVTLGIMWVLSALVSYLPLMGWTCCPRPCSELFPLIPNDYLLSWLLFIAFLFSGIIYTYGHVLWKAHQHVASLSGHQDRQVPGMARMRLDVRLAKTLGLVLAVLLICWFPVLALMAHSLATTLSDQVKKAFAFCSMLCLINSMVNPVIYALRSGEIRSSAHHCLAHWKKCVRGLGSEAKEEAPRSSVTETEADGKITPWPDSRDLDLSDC

Row | SMILES | EC50 [1] [nM] | EC50 [2] [nM] | EC50 [1, 3] [nM]
1 | Cn1nnnc1Cn1nc2nc(C(C)(C)C)nc(N3CC[C@@H](O)C3)c2n1 [Example 113, (R)-1-[5-tert-Butyl-2-(1-methyl-1H-tetrazol-5-ylmethyl)-2H-[1,2,3]triazolo[4,5-d]pyrimidin-7-yl]-pyrrolidin-3-ol] | 1660 | > 10000 | 
2 | Cn1nnnc1Cn1nc2nc(C(C)(C)C)nc(N3CCC(O)C3)c2n1 (centres unmarked) [Example 114, 1-[5-tert-Butyl-2-(1-methyl-1H-tetrazol-5-ylmethyl)-2H-[1,2,3]triazolo[4,5-d]pyrimidin-7-yl]-pyrrolidin-3-ol] | 164 | > 10000 | 
3 | C[C@H](Oc1nc(N2CCC(F)(F)C2)c2nn(Cc3ccccc3C(F)(F)F)nc2n1)C(F)(F)F [Example 115, 7-(3,3-Difluoro-pyrrolidin-1-yl)-2-(2-trifluoromethyl-benzyl)-5-((S)-2,2,2-trifluoro-1-methyl-ethoxy)-2H-[1,2,3]triazolo[4,5-d]pyrimidine] | 31.2 | > 10000 | 
4 | C[C@H](Oc1nc(N2CCC(F)(F)C2)c2nn(Cc3ccccc3S(C)(=O)=O)nc2n1)C(F)(F)F [Example 116, 7-(3,3-Difluoro-pyrrolidin-1-yl)-2-(2-methanesulfonyl-benzyl)-5-((S)-2,2,2-trifluoro-1-methyl-ethoxy)-2H-[1,2,3]triazolo[4,5-d]pyrimidine] | 23.1 | > 10000 | 
5 | C[C@H](Oc1nc(N2CCC(F)(F)C2)c2nn(Cc3ncccc3Cl)nc2n1)C(F)(F)F [Example 117, 2-(3-Chloro-pyridin-2-ylmethyl)-7-(3,3-difluoro-pyrrolidin-1-yl)-5-((S)-2,2,2-trifluoro-1-methyl-ethoxy)-2H-[1,2,3]triazolo[4,5-d]pyrimidine] | 21.2 | > 10000 | 
6 | Cc1nnc(Cn2nc3nc(O[C@@H](C)C(F)(F)F)nc(N4CCC(F)(F)C4)c3n2)o1 [Example 118, 7-(3,3-Difluoro-pyrrolidin-1-yl)-2-(5-methyl-[1,3,4]oxadiazol-2-ylmethyl)-5-((S)-2,2,2-trifluoro-1-methyl-ethoxy)-2H-[1,2,3]triazolo[4,5-d]pyrimidine] |  | > 10000 | 441
7 | Cc1noc(Cn2nc3nc(O[C@@H](C)C(F)(F)F)nc(N4CCC(F)(F)C4)c3n2)n1 [Example 119, 7-(3,3-Difluoro-pyrrolidin-1-yl)-2-(3-methyl-[1,2,4]oxadiazol-5-ylmethyl)-5-((S)-2,2,2-trifluoro-1-methyl-ethoxy)-2H-[1,2,3]triazolo[4,5-d]pyrimidine] |  | > 10000 | 439
8 | C[C@H](Oc1nc(N2CCC(F)(F)C2)c2nn(Cc3nnnn3C)nc2n1)C(F)(F)F [Example 120, 7-(3,3-Difluoro-pyrrolidin-1-yl)-2-(1-methyl-1H-tetrazol-5-ylmethyl)-5-((S)-2,2,2-trifluoro-1-methyl-ethoxy)-2H-[1,2,3]triazolo[4,5-d]pyrimidine] | 69.4 | > 10000 | 
9 | Cc1nonc1Cn1nc2nc(O[C@@H](C)C(F)(F)F)nc(N3CCC(F)(F)C3)c2n1 [Example 121, 7-(3,3-Difluoro-pyrrolidin-1-yl)-2-(4-methyl-furazan-3-ylmethyl)-5-((S)-2,2,2-trifluoro-1-methyl-ethoxy)-2H-[1,2,3]triazolo[4,5-d]pyrimidine] | 7.5 | > 10000 | 
10 | C[C@H](Oc1nc(N2CCC(F)(F)C2)c2nn(CCC(F)(F)F)nc2n1)C(F)(F)F [Example 122, 7-(3,3-Difluoro-pyrrolidin-1-yl)-5-((S)-2,2,2-trifluoro-1-methyl-ethoxy)-2-(3,3,3-trifluoro-propyl)-2H-[1,2,3]triazolo[4,5-d]pyrimidine] | 8.4 | > 10000 | 
11 | C[C@H](Oc1nc(N2CCC(F)(F)C2)c2nn(Cc3nnnn3C3CC3)nc2n1)C(F)(F)F [Example 123, 2-(1-Cyclopropyl-1H-tetrazol-5-ylmethyl)-7-(3,3-difluoro-pyrrolidin-1-yl)-5-((S)-2,2,2-trifluoro-1-methyl-ethoxy)-2H-[1,2,3]triazolo[4,5-d]pyrimidine] | 49.3 | > 10000 | 
12 | CC(C)(C)c1nc(N2CC[C@](C)(O)C2)c2nn(Cc3ccccc3Cl)nc2n1 [Example 124-a, (S)-1-[5-tert-Butyl-2-(2-chloro-benzyl)-2H-[1,2,3]triazolo[4,5-d]pyrimidin-7-yl]-3-methyl-pyrrolidin-3-ol] | 2.5 | > 10000 | 
13 | CC(C)(C)c1nc(N2CC[C@@](C)(O)C2)c2nn(Cc3ccccc3Cl)nc2n1 [Example 124-b, (R)-1-[5-tert-Butyl-2-(2-chloro-benzyl)-2H-[1,2,3]triazolo[4,5-d]pyrimidin-7-yl]-3-methyl-pyrrolidin-3-ol] | 6.8 | > 10000 | 
14 | CC(C)(C)c1nc(N2CC[C@](C)(O)C2)c2nn(Cc3ccccc3C(F)(F)F)nc2n1 [Example 125-a, (S)-1-[5-tert-Butyl-2-(2-trifluoromethyl-benzyl)-2H-[1,2,3]triazolo[4,5-d]pyrimidin-7-yl]-3-methyl-pyrrolidin-3-ol] | 0.4 | 398 | 
15 | CC(C)(C)c1nc(N2CC[C@@](C)(O)C2)c2nn(Cc3ccccc3C(F)(F)F)nc2n1 [Example 125-b, (R)-1-[5-tert-Butyl-2-(2-trifluoromethyl-benzyl)-2H-[1,2,3]triazolo[4,5-d]pyrimidin-7-yl]-3-methyl-pyrrolidin-3-ol] | 3.7 | > 10000 | 
16 | CC(C)(C)c1nc(N2CC[C@](C)(O)C2)c2nn(Cc3ccccc3S(C)(=O)=O)nc2n1 [Example 126-a, (S)-1-[5-tert-Butyl-2-(2-methanesulfonyl-benzyl)-2H-[1,2,3]triazolo[4,5-d]pyrimidin-7-yl]-3-methyl-pyrrolidin-3-ol] | 10.6 | > 10000 | 
17 | CC(C)(C)c1nc(N2CC[C@@](C)(O)C2)c2nn(Cc3ccccc3S(C)(=O)=O)nc2n1 [Example 126-b, (R)-1-[5-tert-Butyl-2-(2-methanesulfonyl-benzyl)-2H-[1,2,3]triazolo[4,5-d]pyrimidin-7-yl]-3-methyl-pyrrolidin-3-ol] | 24 | > 10000 | 
18 | CC(C)(C)c1nc(N2CC[C@](C)(O)C2)c2nn(Cc3ncccc3Cl)nc2n1 [Example 127-a, (S)-1-[5-tert-Butyl-2-(3-chloro-pyridin-2-ylmethyl)-2H-[1,2,3]triazolo[4,5-d]pyrimidin-7-yl]-3-methyl-pyrrolidin-3-ol] | 5.1 | 757 | 
19 | CC(C)(C)c1nc(N2CC[C@@](C)(O)C2)c2nn(Cc3ncccc3Cl)nc2n1 [Example 127-b, (R)-1-[5-tert-Butyl-2-(3-chloro-pyridin-2-ylmethyl)-2H-[1,2,3]triazolo[4,5-d]pyrimidin-7-yl]-3-methyl-pyrrolidin-3-ol] | 11.9 | 609 | 
20 | Cc1nnc(Cn2nc3nc(C(C)(C)C)nc(N4CC[C@](C)(O)C4)c3n2)o1 [Example 128-a, (S)-1-[5-tert-Butyl-2-(5-methyl-[1,3,4]oxadiazol-2-ylmethyl)-2H-[1,2,3]triazolo[4,5-d]pyrimidin-7-yl]-3-methyl-pyrrolidin-3-ol] | 70.2 | > 10000 | 
21 | Cc1nnc(Cn2nc3nc(C(C)(C)C)nc(N4CC[C@@](C)(O)C4)c3n2)o1 [Example 128-b, (R)-1-[5-tert-Butyl-2-(5-methyl-[1,3,4]oxadiazol-2-ylmethyl)-2H-[1,2,3]triazolo[4,5-d]pyrimidin-7-yl]-3-methyl-pyrrolidin-3-ol] | 789 | > 10000 | 
22 | Cc1noc(Cn2nc3nc(C(C)(C)C)nc(N4CC[C@](C)(O)C4)c3n2)n1 [Example 129-a, (S)-1-[5-tert-Butyl-2-(3-methyl-[1,2,4]oxadiazol-5-ylmethyl)-2H-[1,2,3]triazolo[4,5-d]pyrimidin-7-yl]-3-methyl-pyrrolidin-3-ol] |  | > 10000 | 197
23 | Cc1noc(Cn2nc3nc(C(C)(C)C)nc(N4CC[C@@](C)(O)C4)c3n2)n1 [Example 129-b, (R)-1-[5-tert-Butyl-2-(3-methyl-[1,2,4]oxadiazol-5-ylmethyl)-2H-[1,2,3]triazolo[4,5-d]pyrimidin-7-yl]-3-methyl-pyrrolidin-3-ol] |  | > 10000 | 316
24 | Cn1nnnc1Cn1nc2nc(C(C)(C)C)nc(N3CC[C@](C)(O)C3)c2n1 [Example 130-a, (S)-1-[5-tert-Butyl-2-(1-methyl-1H-tetrazol-5-ylmethyl)-2H-[1,2,3]triazolo[4,5-d]pyrimidin-7-yl]-3-methyl-pyrrolidin-3-ol] |  | > 10000 | 172
25 | Cn1nnnc1Cn1nc2nc(C(C)(C)C)nc(N3CC[C@@](C)(O)C3)c2n1 [Example 130-b, (R)-1-[5-tert-Butyl-2-(1-methyl-1H-tetrazol-5-ylmethyl)-2H-[1,2,3]triazolo[4,5-d]pyrimidin-7-yl]-3-methyl-pyrrolidin-3-ol] |  | > 10000 | 798
26 | Cc1nonc1Cn1nc2nc(C(C)(C)C)nc(N3CC[C@](C)(O)C3)c2n1 [Example 131-a, (S)-1-[5-tert-Butyl-2-(4-methyl-furazan-3-ylmethyl)-2H-[1,2,3]triazolo[4,5-d]pyrimidin-7-yl]-3-methyl-pyrrolidin-3-ol] | 10.2 | > 10000 | 
27 | Cc1nonc1Cn1nc2nc(C(C)(C)C)nc(N3CC[C@@](C)(O)C3)c2n1 [Example 131-b, (R)-1-[5-tert-Butyl-2-(4-methyl-furazan-3-ylmethyl)-2H-[1,2,3]triazolo[4,5-d]pyrimidin-7-yl]-3-methyl-pyrrolidin-3-ol] | 61.4 | > 10000 | 
28 | CC(C)(C)c1nc(N2CC[C@](C)(O)C2)c2nn(CCC(F)(F)F)nc2n1 [Example 132-a, (S)-1-[5-tert-Butyl-2-(3,3,3-trifluoro-propyl)-2H-[1,2,3]triazolo[4,5-d]pyrimidin-7-yl]-3-methyl-pyrrolidin-3-ol] | 18.1 | > 10000 | 
